Source: patent publication US7294496B1, “Cloned human lysophospholipase” (The Regents of the University of California, priority 2000, dated 2007)
Where two headings read alike, the source gives them in different places.

Experiments:
[1] = molecular target: T1, human recombinant LysoPLA (Homo sapiens, UniProt O75608, F152L); format: biochemical
T1 construct: made in house; host or cells: E. coli BL21(DE3)

mouse LysoPLA = mouse LysoPLA (Mus musculus, UniProt P97823); assay: Inhibition of mouse LysoPLA; format: biochemical
Description: Various concentrations of each inhibitor (BioMol) were prepared in DMSO. 5 μl of each inhibitor was added to 480 μl of LysoPC substrate (125 μM Ly-soPC in the assay buffer). Enzyme (either mouse or human PLA) was added to the substrate-inhibitor mixture to start the reaction, which was incubated at 40° C. for 30 min. Control experiments were performed with the same amount of enzyme with 5 μl DMSO in the incubation mixture. The reversibility of the inhibition was tested by pre-incubation of the enzyme in the presence or absence of the inhibitor, followed by overnight dialysis in the assay buffer. The recovery of the enzyme activity as a function of time was then followed. Each data point represents an average of duplicates.

[2] = mouse enzyme, 125 μM LysoPC, similar results as human enzyme

Sequence of mouse LysoPLA (P97823 whole entry): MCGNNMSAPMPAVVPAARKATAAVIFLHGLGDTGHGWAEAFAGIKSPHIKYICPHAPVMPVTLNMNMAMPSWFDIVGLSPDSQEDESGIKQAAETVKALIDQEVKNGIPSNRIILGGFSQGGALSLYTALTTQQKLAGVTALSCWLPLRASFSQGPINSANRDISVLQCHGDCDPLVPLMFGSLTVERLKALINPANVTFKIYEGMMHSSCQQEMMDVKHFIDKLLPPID
T1 sequence (O75608 whole entry F152L): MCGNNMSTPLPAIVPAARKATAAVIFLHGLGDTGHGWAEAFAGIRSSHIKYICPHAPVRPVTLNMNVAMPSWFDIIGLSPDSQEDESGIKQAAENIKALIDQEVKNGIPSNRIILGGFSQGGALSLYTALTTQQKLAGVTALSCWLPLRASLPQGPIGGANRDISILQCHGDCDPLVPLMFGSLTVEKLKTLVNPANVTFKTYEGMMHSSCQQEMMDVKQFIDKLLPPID

SMILES	inhibition of LysoPLA activity (in words) ([1]; human enzyme, 125 μM LysoPC)	inhibition of LysoPLA activity (in words) (mouse LysoPLA; [2])	inhibition of LysoPLA activity (in words) [1]	inhibition of LysoPLA activity (in words) (mouse LysoPLA)
O=C1O/C(=C/Br)CCC1c1cccc2ccccc12 (stereo not drawn) [BEL, bromoenol lactone]	neither of them inhibited the LysoPLA activity well	neither of them inhibited the LysoPLA activity well	–	–
CCCCCCCCCCCCCCCC(=O)C(F)(F)F [PACOCF3, palmitoyl tri£uoromethyl ketone]	neither of them inhibited the LysoPLA activity well	neither of them inhibited the LysoPLA activity well	–	–
CCCCCCCCCCCCCCCCOC[C@@H](O)COP(=O)([O-])OCC[N+](C)(C)C [LysoPAF]	–	–	not a good inhibitor	not a good inhibitor
